{"source": "patent US20090022806A1", "about": "“Nanoparticle and polymer formulations for thyroid hormone analogs, antagonists and formulations and uses thereof” (priority 2006, published 2009)", "key": {"[1]": {"system": "EC migration toward the extracellular matrix protein vitronectin", "assay": "Cellular migration assay toward vitronectin (chemotaxis chamber)", "format": "cell-based", "conditions": "hormone 0.1 uM in upper chamber, vitronectin 25 ug in lower chamber", "description": "These assays were performed using a Neuroprobe 96 well disposable chemotaxis chamber with an 8 μm pore size. This chamber allowed for quantitation of cellular migration towards a gradient of either vitronectin or osteopontin. Cultured cells were removed following a standardized method using EDTA/Trypsin (0.01%/0.025%). Following removal, the cells were washed twice and resuspended (2×10^6/ml) in EBM (Endothelial cell basal media, Clonetics Inc.). Add either vitronectin or osteopontin (33 μl) at 0.0125-100 μg/ml to the lower wells of a disposable chemotaxis chamber, and then assemble using the preframed filter. The cell suspension (45 μl) was added to a polypropylene plate containing 5 μl of test agent at different concentrations and incubated for 10 minutes at 22° C. Add 25 μl of cell/test agent suspension to the upper filter wells then incubate overnight (22 hours at 37° C.) in a humidified cell culture incubator. After the overnight incubation, non-migrated cells and excess media were gently removed using a 12 channel pipette and a cell scraper. The filters were then washed twice in PBS (no Ca^+2 or Mg^+2) and fixed with 1% formaldehyde. Membranes of migrated cells were permeated with Triton X-100 (0.2%) then washed 2-3 times with PBS. […] Chemotaxis was quantitatively determined by fluorescence detection using a Cytofluor II (530 excitation/590 emission)."}, "[2]": {"system": "phosphorylated ERK1/2 in ECV304 endothelial cells", "assay": "MAPK (ERK1/2) activation in ECV304 cells, nuclear pERK1/2 immunoblot", "format": "cell-based", "conditions": "T4 10^−7 mol/L, 15 minutes to 6 hours", "method": "ECV304 endothelial cells were cultured in M199 medium with 0.25% hormone-depleted serum 13 for 2 days. […] Nuclear fractions were pre-pared from all samples by our method reported previously, the proteins separated by polyacrylamide gel electrophoresis, and transferred to membranes for immunoblotting with antibody to phosphorylated ERK 1/2."}, "[3]": {"system": "human dermal fibroblast cells", "assay": "In vitro 3D wound healing assay of human dermal fibroblast cells", "format": "cell-based", "conditions": "T4 between 0.1 μM and 1.0 μM", "method": "Step 1: Prepare contracted collagen gels: • 1) Coat 24-well plate with 350 ul 2% BSA at RT for 2 hr, • 2) 80% confluent NHDF (normal human dermal fibroblast cells, Passage 5-9) are trypsinized and neutralized with growth medium, centrifuge and wash once with PBS • 3) Prepare collagen-cell mixture, mix gently and always on ice:\n• 4) Aspire 2% BSA from 24 well plate, add collagen-cell mixture 350 ul/well, and incubate the plate in 37° C. CO2 incubator. • 5) After 1 hr, add DMEM+5% FBS medium 0.5 ml/well, use a 10 ul tip Detach the collagen gel from the edge of each well, then incubate for 2 days. The fibroblast cells will contract the collagen gel Step 2: Prepare 3D fibrin wound clot and embed wounded collagen culture • 1) Prepare fibrinogen solution (1 mg/ml) with or without testing regents. 350 ul fibrinogen solution for each well in eppendorf tube.\n• 2) Cut each contracted collagen gel from middle with scissors. Wash the gel with PBS and transfer the gel to the center of each well of 24 well plate • 3) Add 1.5 ul of human thrombin (0.25 U/ul) to each tube, mix well and then add the solution around the collagen gel, the solution will polymerize in 10 mins. After 20 mins, add DMEM+1% (or 5%) FBS with or without testing agent, 450 ul/well and incubate the plate in 37° C. CO2 incubator for up to 5 days. Take pictures on each day."}, "platelets": {"system": "platelets", "assay": "Collagen-induced platelet aggregation and secretion in whole blood (impedance)", "format": "cell-based, human", "conditions": "10-100 nM", "text": "Platelet aggregation and de-granulation in whole blood using Impedance Technique: The Model 560 Whole-Blood Aggregometer and the associated Aggro-Link Software from the Chrono-Log Corporation were used in this study. Two electrodes are placed in diluted blood and an electrical impulse is sent from one to the other. As the platelets aggregate around the electrodes, the Chrono-Log measures the impedance of the electrical signal in ohms of resistance.\nThe blood was kept on a rocker to extend the life of the platelets, and experiments were done within 5 hours of phlebotomy.\nProcedure: For the control, 500 microliters of whole blood, 500 microliters of 0.9% saline, and a magnetic stir bar were mixed into a cuvette, and heated for five minutes to 37 degrees Celsius. Sub-threshold aggregation was induced with 5 microliters of 1-2 μg/ml Collagen, which the Aggregometer measured for 6-7 minutes. […] Ingerman-Wojenski C, Smith J B, Silver M J. Evaluation of electrical aggregometry: comparison with optical aggregometry, secretion of ATP, and accumulation of radiolabeled platelets. J Lab Clin Med. 1983 January; 101(1):44-52."}}, "data": [{"smiles": "N[C@@H](Cc1cc(I)c(Oc2cc(I)c(O)c(I)c2)c(I)c1)C(=O)O", "note": "[T4, L-thyroxine]", "values": [{"measurement": "Mean EC Migration (Fluorescence Units) + SD", "setting": "[1]", "value": "13,083 ± 276 Fluorescence Units"}, {"measurement": "time of maximal phosphorylation and nuclear translocation of ERK1/2", "setting": "[2]", "value": 30, "unit": "min"}, {"measurement": "wound healing (outmigrating cells), Day 3", "setting": "[3]", "value": "increases wound healing"}, {"measurement": "enhancing platelet aggregation and secretion (de-granulation)", "setting": "platelets", "value": "effective"}]}]}
